Measurements as given in patent US20210145852A1, “Combination Therapies for Treating Muscular Dystrophy” (Sarepta Therapeutics, Inc., priority 2017, published 2021).
“Also recorded” adds a separate entry of the source. Like-named read-outs stand apart in the source and are kept apart here. {TEG} = triethylene glycol tail moiety

Key:
[1] = system: exon 51 of dystrophin pre-mRNA; details: normal human skeletal muscle cells or muscle cells from DMD patients; RT-PCR and Western blot; cited from earlier work
[2] = system: juvenile rats; details: T cell-dependent antibody responses, immunophenotyping of peripheral blood T- and B-cell subpopulations; cited from earlier work
[3] = system: human DMD transcript; details: hDMD mouse model; cited from earlier work
[4] = system: golden retriever muscular dystrophy (GRMD) dog; details: cited from earlier work; for phenotype: GRMD dog, long-term treatment; for diaphragm function: dog DMD model
[5] = system: Mdx mice; details: cited from earlier work; for inflammation and fibrosis: mdx mice (Hammers et al.); for phenotype: mdx mouse, long-term treatment; for diaphragm function: mouse DMD model (mdx)
[6] = system: cNF-κB; details: in vitro; cited from earlier work
[7] = cited from earlier work
[8] = system: mouse dystrophin exon 23 pre-mRNA; test: RT-PCR analysis for exon 23 skipping in Mdx mice; assay type: in vivo; details: muscle of quadriceps, diaphragm and heart of Mdx mice; 4 weeks treatment
Source text: (§1) Wild-type (WT) (C57BL/10ScSn/J) and Mdx (C57BL/10ScSn-Dmd^mdx/J) mice were used to test the efficacy of the M23D PMO (AVI-4225) in combination with CAT-1004. 5-week old mice were acquired from Jackson Labs and acclimated for one-week. The treatment duration was 4 weeks and began when the mice were 6 weeks of age. Mice were divided into the following five treatment groups, each with N=12: (1) wild-type mice treated with saline, (2) Mdx mice treated with saline, (3) Mdx mice treated with CAT-1004, (4) Mdx mice treated with the M23D PMO, and (5) Mdx mice treated with the M23D PMO in combination with CAT-1004. Mice were dosed weekly with M23D PMO (AVI-4225) at 40 mg/kg by IV injection and treated with CAT-1004 (1%) in their diet. All non-CAT-1004 animals were fed a normal chow control diet and all non-M23D PMO animals were given weekly IV injections of saline. Food consumption was closely monitored and the feed was changed twice per week. Mice were sacrificed at 10 weeks of age (4 weeks post-first dose). The quadriceps, diaphragm, and heart were harvested from each of the respective treatment groups.
For exon skipping analysis, quadriceps, diaphragm, and heart tissue samples were homogenized. […] Exon 23 skipping was determined by Caliper imaging. […] Percentage of skipping was determined using the formula: % skipping=skipped molarity/(unskipped+skipped molarity)×100%. […]

[9] = system: dystrophin; test: Immunohistochemical analysis of dystrophin expression in quadriceps of Mdx mice; assay type: in vivo, mouse; details: compared to Mdx mice treated with saline or CAT-1004 monotherapy
Source text: as §1
For immunohistochemistry, frozen quadriceps sections were serially cut and mounted on slides using a cryostat. Sections were rehydrated in PBS and then blocked with Mouse on Mouse (MOM) blocking buffer for 1 hour at room temperature. […]

[10] = system: Mdx mice; test: Histology (H&E and picrosirius red staining) of quadriceps, PMO and CAT-1004 efficacy study in Mdx mice; assay type: in vivo, mouse; details: 4 weeks treatment, M23D PMO 40 mg/kg IV weekly or CAT-1004 1% in diet, compared to Mdx mice treated with saline
Source text: as §1, with “All non-CAT-1004 animals were fed a normal chow control diet and all non-M23D PMO animals were given weekly IV injections of saline.” left out, “Mice were sacrificed at 10 weeks of age (4 weeks post-first dose). The quadriceps, diaphragm, and heart were harvested from each of the respective treatment groups.” left out
To assess the effectiveness of a combination treatment of an exon skipping antisense oligonucleotide and an NF-Kb inhibitor in Duchenne muscular dystrophy, M23D PMO and CAT-1004 were utilized in the Mdx mouse model. The effect on inflammation and fibrosis was determined by analyzing samples of muscle taken from the quadriceps, of (1) wild-type mice treated with saline, (2) mdx mice treated with saline, (3) mdx mice treated with CAT-1004, (4) mdx mice treated with the M23D PMO, and (5) mdx mice treated with the M23D PMO in combination with CAT-1004. […]

[11] = system: ryanodine receptor; details: mouse model of DMD; cited from earlier work
[12] = system: ryanodine receptor; details: patient cells; cited from earlier work
[13] = system: dystrophin protein; test: Western blot analysis of dystrophin protein levels in Mdx mice; assay type: in vivo, mouse; details: quadriceps, diaphragm and heart of Mdx mice, combination compared to M23D PMO monotherapy
Source text: as §1
Dystrophin protein was analyzed by Western blot analysis, and immunohistochemistry. […] Total protein concentration of the protein lysates were measured using Pierce™ BCA Protein Assay Kit (ThermoFisher Scientific catalog #23225). […]

[14] = system: NF-κB; details: cited from earlier work
[15] = system: NF-κB p65; details: cited from earlier work
[16] = phase I clinical program, adults, placebo-controlled studies; cited from earlier work

eteplirsen
exon 51 skipping [1]: potent inducer of exon 51 skipping | effect on the immune response [2]: no adverse effect on the immune response | exon 51 skipping in vivo [3]: confirmed in vivo

CC/C=C\C/C=C\C/C=C\C/C=C\C/C=C\CCCC(=O)NCCNC(=O)c1ccccc1O [CAT-1041]
phenotype [4]: improves the phenotype | diaphragm function [4]: improved diaphragm function | inflammation and fibrosis [5]: reduced inflammation and fibrosis | muscle fibrosis ([5]; mdx mice, long-term studies): reduces muscle fibrosis | skeletal muscle weight ([5]; mdx mice, long-term studies): increases skeletal muscle weight | exercise endurance ([5]; mdx mice): increased exercise endurance | muscle function ([5]; mdx mice): preserves muscle function | phenotype [5]: improves the phenotype | diaphragm function [5]: improved diaphragm function | cNF-κB activation [6]: inhibit cNF-κB activation in vitro

triacetyl-beta-cyclodextrin
solubility in water (in words) [7]: insoluble

M23D PMO: PMO hybridizing to mouse dystrophin exon 23 pre-mRNA, TEG tail at 5′ end, sequence GGCCAAACCTCGGCTTACCTGAAAT (SEQ ID NO: 30) (antisense GGCCAAACCTCGGCTTACCTGAAAT; all phosphorodiamidate morpholino (PMO), 5' {TEG})
exon 23 skipping [8]: Exon skipping was observed | dystrophin expression (immunohistochemistry) [9]: increase in dystrophin expression | inflammation and fibrosis in quadriceps [10]: reduction of inflammation and fibrosis

O=C1CN(/N=C/c2ccc(-c3ccc([N+](=O)[O-])cc3)o2)C(O)=N1 [dantrolene]
antisense-mediated exon skipping [11]: enhance antisense-mediated exon skipping | antisense-mediated exon skipping [12]: enhance antisense-mediated exon skipping

CC/C=C\C/C=C\C/C=C\C/C=C\C/C=C\C/C=C\CCC(=O)NCCNC(=O)c1ccccc1O [CAT-1004, N-(2-[(4Z,7Z,10Z,13Z,16Z,19Z)-docosa-4,7,10,13,16,19-hexaenamido]ethyl)-2-hydroxybenzamide]
phenotype [4]: improves the phenotype | diaphragm function [4]: improved diaphragm function | dystrophin production [13]: neither exon skipping nor dystrophin production were observed | levels of the p65 subunit of NF-κB ([14]; healthy adult humans, compared to placebo or salicylate and omega-3 DHA as separate molecules): lowers levels of the p65 subunit of NF-κB | biomarkers of inflammation in whole blood ([14]; humans): decrease of biomarkers of inflammation | activated NF-κB pathways ([14]; phase I clinical program in adults, listed as Edasalonexent): inhibited activated NF-kB pathways; also recorded: inhibited activated NF-κB pathways | inflammation and fibrosis [5]: reduced inflammation and fibrosis | cumulative run distance ([5]; mdx mice, long-term studies): increased cumulative run distance | exercise endurance ([5]; mdx mice): increased exercise endurance | muscle degeneration and inflammation ([5]; mdx mice): reduce muscle degeneration and inflammation | muscle function ([5]; mdx mice): preserve muscle function | muscle regeneration ([5]; mdx mice): enhance muscle regeneration | phenotype [5]: improves the phenotype | diaphragm function [5]: improved diaphragm function | exon 23 skipping [8]: neither exon skipping nor dystrophin production were observed | NF-κB activity ([15]; dog model of DMD): decreases NF-κB activity | binding of the p65 subunit to DNA ([15]; dog model of DMD): reduced binding of the p65 subunit to DNA | secretion of the inflammatory mediator TNF-α ([15]; dog model of DMD): reduced secretion of the inflammatory mediator TNF-α | NF-κB p65-dependent inflammatory responses and downstream proinflammatory genes modulated by p65 ([15]; golden retriever DMD model): significantly inhibit | safety and tolerability [16]: safe, well tolerated | cNF-κB activation [6]: inhibit cNF-κB activation in vitro | inflammation and fibrosis in quadriceps [10]: reduction of inflammation and fibrosis

G-2-beta-cyclodextrin
solubility in water [7]: 147 % (w/v)
